Reference: ChEMBL document CHEMBL5365497, “Developing Novel Coumarin-Containing Azoles Antifungal Agents by the Scaffold Merging Strategy for Treating Azole-Resistant Candidiasis” (J Med Chem, 2023)
Converted amounts (≈) assume the structure as drawn. The source made the active and inactive calls. The rule behind the calls is not given here.

Key:
[1] = tested on: Candida parapsilosis; assay: Antifungal activity against Candida parapsilosis assessed as fungal growth inhibition by CLSI based microdilution method; type: functional; settings: Lodderomyces parapsilosis
[2] = Subacute toxicity in KM mouse assessed as liver inflammation at 100 mg/kg administered via gavage daily for 7 days; type: organism-based; settings: in vivo, po, 168 h, time 7 day
[3] = tested on: Candida albicans; assay: Antifungal activity against fluconazole-resistant Candida albicans 904 assessed as fungal growth inhibition by CLSI based microdilution method; type: functional
[4] = molecular target: T1, Lanosterol 14-alpha demethylase (Candida albicans (strain SC5314 / ATCC MYA-2876) (Yeast), UniProt P10613); assay: Inhibition of CYP51 in Candida albicans SC5314 assessed as ergosterol level at 0.03125 ug/ml incubated for 24 hrs by GC-MS analysis (reference value: 97.58 %); parameters: scale not given: the % may be the effect or the level left; settings: at 0.03125 µg/mL
T1 sequence (P10613 whole entry): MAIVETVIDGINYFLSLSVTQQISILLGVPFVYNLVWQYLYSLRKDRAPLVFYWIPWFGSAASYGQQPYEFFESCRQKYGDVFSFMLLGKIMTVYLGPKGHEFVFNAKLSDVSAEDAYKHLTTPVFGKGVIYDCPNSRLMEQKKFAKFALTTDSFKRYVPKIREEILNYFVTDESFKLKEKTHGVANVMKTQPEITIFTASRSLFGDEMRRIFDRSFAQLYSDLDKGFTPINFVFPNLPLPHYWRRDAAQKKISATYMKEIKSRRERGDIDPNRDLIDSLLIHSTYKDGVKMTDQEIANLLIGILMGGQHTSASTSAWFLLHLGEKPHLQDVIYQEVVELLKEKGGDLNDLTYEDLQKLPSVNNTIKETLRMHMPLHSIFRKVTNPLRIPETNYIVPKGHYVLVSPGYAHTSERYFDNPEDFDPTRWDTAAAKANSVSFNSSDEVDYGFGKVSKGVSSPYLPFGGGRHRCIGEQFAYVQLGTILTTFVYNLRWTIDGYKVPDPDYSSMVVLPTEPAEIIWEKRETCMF

[5] = Subacute toxicity in KM mouse assessed as mortality at 100 mg/kg administered via gavage daily for 14 days; type: organism-based; settings: in vivo, po, 336 h, time 14 day
[6] = tested on: Candida albicans; assay: Antifungal activity against fluconazole-resistant Candida albicans 632 assessed as fungal growth inhibition by CLSI based microdilution method; type: functional
[7] = tested on: Candida albicans; assay: Antifungal activity against fluconazole-resistant Candida albicans 904 infected in ICR mouse assessed as reduction in fungal kidney burden by measuring CFU administered intraperitoneally measured after 5 days; type: functional, organism-based; settings: dose 0.6 mg/kg, route ip, time 5.0 day
[8] = Subacute toxicity in male KM mouse assessed as focal infiltration of lymphocytes in kidney at 100 mg/kg administered via gavage daily for 7 days; type: organism-based; settings: in vivo, po, 168 h, time 7 day
[9] = tested on: Candida albicans; assay: Antifungal activity against Candida albicans SC5314 assessed as leakage of endogenous material within cells at 16 ug/ml incubated for 24 hrs by TEM analysis; type: functional, organism-based; settings: dose 16.0 µg/ml
[10] = molecular target: T1, Lanosterol 14-alpha demethylase; assay: Inhibition of CYP51 in Candida albicans SC5314 assessed as increase in obtusifoliol level at 0.03125 ug/ml incubated for 24 hrs by GC-MS analysis; settings: at 0.03125 µg/mL
[11] = molecular target: T2, Cytochrome P450 1A2 (Homo sapiens, UniProt P05177); assay: Inhibition of CYP1A2 in human liver microsomes using phenacetin as substrate preincubated for 5 mins followed by NADPH addition by LC-MS/MS analysis; type: ADME, Microsome
T2 sequence (P05177 whole entry): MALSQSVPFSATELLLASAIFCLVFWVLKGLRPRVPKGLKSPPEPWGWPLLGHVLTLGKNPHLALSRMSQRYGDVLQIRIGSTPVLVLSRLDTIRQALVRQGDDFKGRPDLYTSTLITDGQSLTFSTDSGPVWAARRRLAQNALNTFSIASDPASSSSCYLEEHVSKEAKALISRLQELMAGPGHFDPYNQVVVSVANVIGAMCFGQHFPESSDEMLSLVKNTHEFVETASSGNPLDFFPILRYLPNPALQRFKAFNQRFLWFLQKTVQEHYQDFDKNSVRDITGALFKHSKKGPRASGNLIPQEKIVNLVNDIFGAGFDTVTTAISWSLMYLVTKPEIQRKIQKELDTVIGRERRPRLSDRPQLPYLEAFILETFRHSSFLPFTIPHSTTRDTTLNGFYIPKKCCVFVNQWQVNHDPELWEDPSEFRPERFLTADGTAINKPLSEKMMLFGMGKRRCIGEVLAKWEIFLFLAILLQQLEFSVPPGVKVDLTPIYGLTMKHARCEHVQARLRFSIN

[12] = tested on: Candida albicans; assay: Antifungal activity against Candida albicans CPCC400616 assessed as reduction in TEC1 expression at 2 ug/ml incubated for 12 hrs by RT-PCR analysis; type: functional, organism-based; settings: dose 2.0 µg/ml
[13] = molecular target: T1, Lanosterol 14-alpha demethylase; assay: Inhibition of CYP51 in Candida albicans SC5314 assessed as increase in eburicol level at 0.03125 ug/ml incubated for 24 hrs by GC-MS analysis; settings: at 0.03125 µg/mL
[14] = tested on: Candida albicans; assay: Antifungal activity against Candida albicans SC5314 assessed as cell lysis at 16 ug/ml incubated for 24 hrs by TEM analysis; type: functional, organism-based; settings: dose 16.0 µg/ml
[15] = tested on: Candida albicans; assay: Antifungal activity against fluconazole-resistant Candida albicans 904 assessed as decrease in CDR2 expression at 16 ug/ml measured after 16 hrs by RT-PCR analysis; type: functional, organism-based; settings: dose 16.0 µg/ml
[16] = tested on: Candida albicans; assay: Antifungal activity against fluconazole-resistant Candida albicans 904 assessed as decrease in CDR1 expression at 16 ug/ml measured after 16 hrs by RT-PCR analysis; type: functional, organism-based; settings: dose 16.0 µg/ml
[17] = molecular target: Cytochrome P450 2C9 (Homo sapiens, UniProt P11712); assay: Inhibition of CYP2C9 in human liver microsomes using diclofenac as substrate preincubated for 5 mins followed by NADPH addition by LC-MS/MS analysis; type: ADME, Microsome
Cytochrome P450 2C9, sequence (P11712 whole entry): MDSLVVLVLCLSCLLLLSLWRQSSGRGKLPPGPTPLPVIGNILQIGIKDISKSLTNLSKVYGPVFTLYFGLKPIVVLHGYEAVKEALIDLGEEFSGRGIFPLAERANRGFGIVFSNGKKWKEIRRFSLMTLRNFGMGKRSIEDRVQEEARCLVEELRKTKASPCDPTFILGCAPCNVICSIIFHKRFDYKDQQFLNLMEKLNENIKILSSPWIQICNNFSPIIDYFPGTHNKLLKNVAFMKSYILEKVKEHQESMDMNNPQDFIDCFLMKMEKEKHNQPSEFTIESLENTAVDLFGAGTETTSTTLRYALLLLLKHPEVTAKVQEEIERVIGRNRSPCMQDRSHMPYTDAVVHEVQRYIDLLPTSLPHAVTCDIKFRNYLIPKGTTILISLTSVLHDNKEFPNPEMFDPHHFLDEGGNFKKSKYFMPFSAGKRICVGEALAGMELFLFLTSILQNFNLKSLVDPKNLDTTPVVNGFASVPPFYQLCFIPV

[18] = tested on: Candida albicans; assay: Antifungal activity against fluconazole-resistant Candida albicans 904 assessed as reduction in ALS3 expression at 16 ug/ml incubated for 12 hrs by RT-PCR analysis; type: functional, organism-based; settings: dose 16.0 µg/ml
[19] = tested on: Pichia kudriavzevii; assay: Antifungal activity against Pichia kudriavzevii assessed as fungal growth inhibition by CLSI based microdilution method; type: functional
[20] = tested on: Candida albicans; assay: Antifungal activity against fluconazole-resistant Candida albicans CaR assessed as fungal growth inhibition by CLSI based microdilution method; type: functional
[21] = tested on: Candida albicans; assay: Antibiofilm activity against Candida albicans CPCC400616 incubated for 24 hrs by XTT reduction assay; type: functional, organism-based; settings: dose <= 128.0 µg/ml
[22] = tested on: Nakaseomyces glabratus; assay: Antifungal activity against Candida glabrata assessed as fungal growth inhibition by CLSI based microdilution method; type: functional
[23] = Subacute toxicity in male KM mouse assessed as kidney damage at 100 mg/kg administered via gavage daily for 14 days; type: organism-based; settings: in vivo, po, 336 h, time 14 day
[24] = tested on: Candida albicans; assay: Antifungal activity against fluconazole-resistant Candida albicans 901 assessed as fungal growth inhibition by CLSI based microdilution method; type: functional
[25] = Cytotoxicity against human MRC5 cells assessed as cell growth inhibition by MTT assay; type: toxicity, cell-based
[26] = Subacute toxicity in female KM mouse assessed as liver inflammation at 100 mg/kg administered via gavage daily for 14 days; type: organism-based; settings: in vivo, po, 336 h, time 14 day
[27] = tested on: Candida albicans; assay: Antifungal activity against Candida albicans CPCC400616 assessed as reduction in ALS3 expression at 2 ug/ml incubated for 12 hrs by RT-PCR analysis; type: functional, organism-based; settings: dose 2.0 µg/ml
[28] = molecular target: T1, Lanosterol 14-alpha demethylase; assay: Inhibition of CYP51 in Candida albicans SC5314 assessed as increase in lanosterol level at 0.03125 ug/ml incubated for 24 hrs by GC-MS analysis; settings: at 0.03125 µg/mL
[29] = Metabolic stability in mouse liver microsomes assessed as half life incubated for 5 to 60 mins by LC-MS/MS analysis; type: ADME, Microsome; settings: time 5-60 min
[30] = Stability in mouse plasma assessed as half life at 1 uM measured for 180 mins by LC-MS/MS analysis; type: ADME, cell-free
[31] = tested on: Candida albicans; assay: Antifungal activity against fluconazole-resistant Candida albicans 904 assessed as reduction in EFG1 expression at 16 ug/ml incubated for 12 hrs by RT-PCR analysis; type: functional, organism-based; settings: dose 16.0 µg/ml
[32] = Subacute toxicity in KM mouse assessed as abnormal behaviour at 100 mg/kg administered via gavage daily for 14 days; type: organism-based; settings: in vivo, po, 336 h, time 14 day
[33] = Subacute toxicity in female KM mouse assessed as kidney damage at 100 mg/kg administered via gavage daily for 7 days; type: organism-based; settings: in vivo, po, 168 h, time 7 day
[34] = tested on: Candida albicans; assay: Antifungal activity against Candida albicans CPCC400616 assessed as reduction in CPH1 expression at 2 ug/ml incubated for 12 hrs by RT-PCR analysis; type: functional, organism-based; settings: dose 2.0 µg/ml

In the case of O=c1ccc2ccc(COC(Cn3ccnc3)c3ccc(Cl)cc3Cl)cc2o1 (centres undefined), the MIC [1] is reported as 0.5 µg/mL (≈ 1.2 µM), the Activity [2] is reported as “Toxic” and the MIC [3] is reported as 1 µg/mL (≈ 2.41 µM). The Activity [4] was 1.54%, the Activity [5] was “Non-Toxic” and the MIC [6] was 4 µg/mL (≈ 9.63 µM). For the same molecule, the Activity [7] was “Dose-Dependent Effect”, the Activity [8] was “Toxic” and the Activity [9] was “Active”. The “inhibition (INH)” value [10] was “Active”, the IC50 [11] was 6.01 µM and the Activity [12] was “Active”. The “inhibition (INH)” value [13] was “Active”, the Activity [14] was “Active” and the Activity [15] was “Active”. For the same molecule, the Activity [16] was “Active”, the IC50 [17] was 0.138 µM and the Activity [18] was “Active”. For the same molecule, the MIC [19] was 2 µg/mL (≈ 4.82 µM), the MIC [20] was 1 µg/mL (≈ 2.41 µM) and the Activity [21] was “Dose-Dependent Effect”. The MIC [22] was 0.5 µg/mL (≈ 1.2 µM), the Activity [23] was “Toxic” and the MIC [24] was 4 µg/mL (≈ 9.63 µM). For the same molecule, the IC50 [25] was 24.4 µM, the Activity [26] was “Toxic” and the Activity [27] was “Active”. For the same molecule, the “inhibition (INH)” value [28] was “Active”, the half-life [29] was 15.2 min and the half-life at 1 µM [30] was > 360 min. The Activity [31] was “Active”, the Activity [32] was “Non-Toxic” and the Activity [33] was “Toxic”. The Activity [34] was “Active”.
